Measurements: US20240101551A1, “CRYSTAL FORM AND SALT FORM OF BROMINE DOMAIN PROTEIN INHIBITOR AND PREPARATION METHOD THEREFOR” (CHIA TAI TIANQING PHARMACEUTICAL GROUP CO., LTD., priority 2020, published 2024)

Columns and labels:
[1] = Study on stability under influencing factors (high temperature, high humidity, light) of the crystal forms; format: physicochemical
Experimental: In order to evaluate the solid stability of the crystal forms of the present application, the stability of each of the crystal form I, the crystal form A, the crystal form D, the crystal form E and the crystal form F under influencing factors (high temperature, high humidity and light) was investigated. Each of the crystal forms was stored under the high temperature condition (60±2° C., open (weighing bottle)), and the high humidity condition (room temperature, 92.5%±5% RH, open (weighing bottle) and packaged) for 5 days, 10 days and 30 days, and under the ICH light condition (5500 Lux, 0.9 w/m^2, closed (weighing bottle) and packaged) for 5 days and 10 days. The inner packaging material of the packaged sample was a medical low-density polyethylene bag, and the outer packaging material is a medical polyester/aluminum/polyethylene composite bag. The samples after the storage were characterized by properties, purity (HPLC), crystal form (XRD) and water content to detect the changes in the crystal form and purity. The results are shown in Tables 8-12 (“^#” indicates the ICH condition).

[2] = Animal pharmacokinetic study; format: in vivo, rats
Experimental: Three healthy adult male rats that obtained from Beijing Vital River Laboratory Animal Technology Co., Ltd were used for the animal pharmacokinetic experiment. The compound of formula (I) was suspended in 2% absolute ethanol, 5% tween 80, 20% polyethylene glycol 400, and 73% (5% hydroxypropylmethyl cellulose in water) (V/V/V/V) at a concentration of 1 mg/mL. The administration volume was 5 mL/kg, and animals were treated with a single intragastric administration at a dose of 5 mg/kg Animals were fasted overnight prior to the experiment, and the fasting time was from 10 hours before administration to 4 hours after administration. Blood was sampled at 0.25, 0.5, 1, 2, 4, 6, 8 and 24 hours after administration Animals were lightly anesthetized with isoflurane, and approximately 0.4 mL of whole blood was collected from the orbital venous plexus using a glass blood collection tube, and placed in a heparin anticoagulation tube. The sample was centrifuged at 4200 rpm for 5 minutes at 4° C., and then the plasma was transferred to a centrifuge tube and stored at −80° C. until analyzed. In the plasma sample analysis, test compound and internal standard (warfarin or propranolol) were extracted from rat plasma by acetonitrile protein precipitation, and the extracts were analyzed by LC/MS/MS. The measured plasma concentration-time data of the individual animals were analyzed using a non-compartmental model of WinNonlin (version no. 5.2.1; Pharsight) software to give pharmacokinetic parameters as shown in Table 17 below: the maximum (peak) plasma drug concentration C,max; the time to peak Tmax; the half-life T1/2 and the area under the plasma concentration-time curve extrapolated to infinity AUC0-inf.

BRD4 (BD2) = BRD4 (BD2) (Homo sapiens (Human), UniProt O60885); assay: In vitro enzymatic activity assay on BRD4 (BD2), HTRF; format: binding; conditions: GST-BRD4 (BD2, 349-460 aa)
Experimental: In the present application, the IC50 value of the compound of formula (I) in inhibiting BRD4 (BD2) enzyme binding reaction were determined by homogeneous time resolved fluorescence (HTRF). The compound of formula (I) was serially diluted 5-fold with 100% DMSO starting from 1 mM (7 concentrations in total), and then 2 μL of the compound of formula (I) at each concentration was added to 18 μL of a reaction buffer (20 mM HEPES pH 7.5, 150 mM NaCl, 5 mM DTT, 0.005% Tween 20, and 100 μg/mL BSA) for dilution. After being mixed well, 2 μL of the compound of formula (I) at each concentration was added to 48 μL of the above reaction buffer for dilution, and mixed well (final concentration of the compound of formula (I) in DMSO: 0.1%). […] After being incubated in the incubator for another 1 hour, the fluorescence values (excited at 320 nm, emitted light at 665 nm and 620 nm being detected, and the ratio of the two being the enzyme binding signal) were read on Envision (purchased from PerkinElmer). The binding strength of the compound of formula (I) to BRD4 (BD2) protein was determined respectively at 7 concentrations, and the data were calculated using GraphPad Prism software to obtain the IC50 value of the compound of formula (I).

BRD4 (BD1) = BRD4 (BD1) (Homo sapiens (Human), UniProt O60885); assay: In vitro enzymatic activity assay on BRD4 (BD1), HTRF; format: binding; conditions: GST-BRD4 (BD1, 44-168 aa)
Experimental: In the present application, the IC50 value of the compound of formula (I) in inhibiting BRD4 (BD1) enzyme binding reaction were determined by homogeneous time resolved fluorescence (HTRF). The compound of formula (I) was serially diluted 5-fold with 100% DMSO starting from 0.2 mM (7 concentrations in total), and then 2 μL of the compound of formula (I) at each concentration was added to 48 μL of a reaction buffer (20 mM HEPES pH 7.5, 150 mM NaCl, 5 mM DTT, 0.005% Tween 20, and 100 μg/mL BSA) for dilution, and mixed well. 2.5 μL of the resulting mixture was added to a 384-well plate (OptiPlate-384, purchased from PerkinElmer), then 5 μL of GST-BRD4 (BD1, 44-168 aa) (final concentration: 1 nM) was added, and the resulting mixture was centrifuged, and fully mixed. […] After being incubated in the incubator for another 1 hour, the fluorescence values (excited at 320 nm, emitted light at 665 nm and 620 nm being detected, and the ratio of the two being the enzyme binding signal) were read on Envision (purchased from PerkinElmer). The binding strength of the compound of formula (I) to BRD4 (BD1) protein was determined respectively at 7 concentrations, and the data were calculated using GraphPad Prism software to obtain the ICso value of the compound of formula (I).

[3] = Light (ICH, 5500 Lux), closed, 5 days
[4] = Light (ICH, 5500 Lux), closed, 10 days
[5] = 92.5% RH, room temperature, open, 10 days
[6] = 92.5% RH, room temperature, open, 30 days
[7] = rat, po, male rats, single intragastric administration, 5 mg/kg, plasma

Crystal form change ([1]; Light (ICH), packaged, 10 days) | Impurity content ([1]; Light (ICH), packaged, 10 days) [%] | Water content ([1]; Light (ICH), packaged, 10 days) [%] | Impurity content [1, 3] [%] | Crystal form change [1, 4] | Impurity content [1, 4] [%] | Water content [1, 4] [%] | Impurity content ([1]; starting crystal form) [%] | Water content ([1]; starting crystal form) [%] | Impurity content ([1]; 60° C., open, 5 days) [%] | Crystal form change ([1]; 60° C., open, 10 days) | Impurity content ([1]; 60° C., open, 10 days) [%] | Crystal form change ([1]; 60° C., open, 30 days) | Impurity content ([1]; 60° C., open, 30 days) [%] | SMILES | further results
Unchanged | 1.32 | 6.6 | 1.32 | Unchanged | 1.35 | 8.1 | 1.30 | 5.8 | – | – | – | – | – | Cn1cc(-c2nc(N=S(C)(C)=O)ccc2Oc2ccc(F)cc2F)c2cc[nH]c2c1=O [crystal form A] | –
– | – | – | – | – | – | – | 0.17 | – | 0.18 | Unchanged | 0.20 | Unchanged | 0.22 | Cn1cc(-c2nc(N=S(C)(C)=O)ccc2Oc2ccc(F)cc2F)c2cc[nH]c2c1=O [crystal form F] | –
Unchanged | 0.08 | 1.2 | 0.11 | Unchanged | 0.09 | 1.1 | 0.05 | 1.4 | 0.19 | Unchanged | 0.27 | Unchanged | 0.44 | Cn1cc(-c2nc(N=S(C)(C)=O)ccc2Oc2ccc(F)cc2F)c2cc[nH]c2c1=O [crystal form D] | Water content ([1]; 60° C., open, 10 days): 1.0%; Water content ([1]; 60° C., open, 30 days): 0.68%; Crystal form change ([1]; 92.5% RH, packaged, 30 days): Unchanged; Impurity content ([1]; 92.5% RH, packaged, 30 days): 0.12%; Water content ([1]; 92.5% RH, packaged, 30 days): 1.0%; Impurity content ([1]; 92.5% RH, room temperature, open, 5 days): 0.07%; Crystal form change [1, 5]: Unchanged; Impurity content [1, 5]: 0.06%; Water content [1, 5]: 2.0%; Crystal form change [1, 6]: Unchanged; Impurity content [1, 6]: 0.07%; Water content [1, 6]: 1.9%
– | – | – | – | – | – | – | – | – | – | – | – | – | – | Cn1cc(-c2nc(N=S(C)(C)=O)ccc2Oc2ccc(F)cc2F)c2cc[nH]c2c1=O [Compound of formula (I), 4-{3-(2,4-difluorophenoxy)-6-{[dimethyl(oxo)-λ^6-sulfaneylidene]amino}-pyridin-2-yl}-6-methyl-1,6-dihydro-7H-pyrrolo[2,3-c]pyridin-7-one] | AUC(0-inf) [2, 7]: 3470 ng·h/mL; Cmax [2, 7]: 372 ng/mL; Tmax [2, 7]: 2.67 h; half-life [2, 7]: 5.25 h; Pharmacokinetic properties (conclusion) ([2]; rats, 5 mg/kg intragastric): good pharmacokinetic properties; IC50 (BRD4 (BD2)): 0.25 nM; IC50 (BRD4 (BD1)): 0.64 nM
– | – | – | – | – | – | – | 0.18 | – | 0.20 | Unchanged | 0.21 | Unchanged | 0.21 | Cn1cc(-c2nc(N=S(C)(C)=O)ccc2Oc2ccc(F)cc2F)c2cc[nH]c2c1=O [crystal form E] | –
